The results in this text go back to patent publication US10160755B2 (Plexxikon Inc., priority 2015, dated 2018).

One test addresses T1, FLT3-D835Y (Homo sapiens, UniProt P36888, D835Y).
T1 construct: purchased Invitrogen PV3967
T1 sequence (P36888 27-993 D835Y): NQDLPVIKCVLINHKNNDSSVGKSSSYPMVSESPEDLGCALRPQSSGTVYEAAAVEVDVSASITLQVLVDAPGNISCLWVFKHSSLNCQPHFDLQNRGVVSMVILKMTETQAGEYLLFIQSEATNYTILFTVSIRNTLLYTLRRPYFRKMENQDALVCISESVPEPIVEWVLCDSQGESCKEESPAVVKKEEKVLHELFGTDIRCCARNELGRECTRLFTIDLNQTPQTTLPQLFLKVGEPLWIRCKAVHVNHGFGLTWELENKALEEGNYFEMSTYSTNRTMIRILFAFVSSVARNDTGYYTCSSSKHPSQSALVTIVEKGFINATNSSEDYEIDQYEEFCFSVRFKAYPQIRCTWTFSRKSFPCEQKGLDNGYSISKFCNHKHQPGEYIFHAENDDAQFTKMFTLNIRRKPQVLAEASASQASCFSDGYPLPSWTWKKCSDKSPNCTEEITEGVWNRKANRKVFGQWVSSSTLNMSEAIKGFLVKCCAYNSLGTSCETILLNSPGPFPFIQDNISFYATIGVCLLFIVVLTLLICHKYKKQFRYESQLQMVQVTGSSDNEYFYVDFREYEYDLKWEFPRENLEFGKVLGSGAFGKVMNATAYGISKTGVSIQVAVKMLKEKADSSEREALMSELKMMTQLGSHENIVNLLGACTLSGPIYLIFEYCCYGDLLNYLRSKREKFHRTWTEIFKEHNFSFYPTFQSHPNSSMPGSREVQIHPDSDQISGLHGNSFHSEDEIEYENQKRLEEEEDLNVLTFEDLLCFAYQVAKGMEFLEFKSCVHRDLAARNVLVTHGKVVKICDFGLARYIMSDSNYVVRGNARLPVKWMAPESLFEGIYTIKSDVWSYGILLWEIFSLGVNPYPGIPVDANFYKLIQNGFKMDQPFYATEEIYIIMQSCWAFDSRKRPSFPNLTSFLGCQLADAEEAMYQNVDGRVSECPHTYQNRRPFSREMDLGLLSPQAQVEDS
In words: FLT3-D835Y biochemical kinase assay (AlphaScreen). An outline of the steps: (§1)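 First, recombinant FLT3 variant phosphorylates a biotinylated poly(Glu4-Tyr) peptide (30 nM) with ATP at 10 μM (D835Y) or 100 μM (ITD). Streptavidin donor beads are then added for 20 min at room temperature, followed by anti-phosphotyrosine PY20 acceptor beads for 60 min. Signal at 580 nm gives IC50.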

A further test concerns the target T2, FLT3-ITD (Homo sapiens, UniProt P36888).
T2 construct: FLT3-ITD; Invitrogen #PV6190
T2 sequence (P36888 1-993): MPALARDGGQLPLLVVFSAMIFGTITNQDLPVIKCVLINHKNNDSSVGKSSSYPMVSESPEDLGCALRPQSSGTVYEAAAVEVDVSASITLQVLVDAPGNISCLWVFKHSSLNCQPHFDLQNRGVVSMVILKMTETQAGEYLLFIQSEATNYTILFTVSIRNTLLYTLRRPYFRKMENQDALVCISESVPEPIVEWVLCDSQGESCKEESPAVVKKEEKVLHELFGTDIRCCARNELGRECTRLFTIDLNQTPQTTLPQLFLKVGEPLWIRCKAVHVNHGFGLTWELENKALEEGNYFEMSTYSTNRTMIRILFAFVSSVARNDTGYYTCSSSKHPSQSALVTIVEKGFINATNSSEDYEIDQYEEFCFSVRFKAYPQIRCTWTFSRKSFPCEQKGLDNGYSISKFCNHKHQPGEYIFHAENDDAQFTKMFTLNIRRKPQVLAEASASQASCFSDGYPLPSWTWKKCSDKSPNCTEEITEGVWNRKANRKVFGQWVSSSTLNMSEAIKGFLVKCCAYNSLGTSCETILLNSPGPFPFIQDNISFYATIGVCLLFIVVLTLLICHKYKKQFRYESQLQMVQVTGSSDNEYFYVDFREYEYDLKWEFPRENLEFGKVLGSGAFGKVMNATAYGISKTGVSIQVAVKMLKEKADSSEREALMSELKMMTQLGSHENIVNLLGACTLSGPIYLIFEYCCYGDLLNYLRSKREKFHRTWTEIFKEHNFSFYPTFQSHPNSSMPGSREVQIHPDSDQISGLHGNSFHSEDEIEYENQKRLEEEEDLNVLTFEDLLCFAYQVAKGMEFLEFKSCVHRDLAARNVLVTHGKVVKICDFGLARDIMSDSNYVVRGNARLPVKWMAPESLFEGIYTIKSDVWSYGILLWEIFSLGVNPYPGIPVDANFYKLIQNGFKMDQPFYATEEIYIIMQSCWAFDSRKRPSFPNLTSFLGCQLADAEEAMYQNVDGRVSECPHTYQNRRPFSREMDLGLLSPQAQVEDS
Kind of test: FLT3-ITD biochemical kinase assay (AlphaScreen). An outline of the steps:
as §1

For the next test, the target named is c-Kit (Homo sapiens, UniProt P10721). Kind of test: c-Kit biochemical assay (per US 2007/0032519). Put shortly: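 Biochemical kinase inhibition run per US 2007/0032519; values reported as binned IC50 ranges (0.0001–1 μM, 1–10 μM, 10–200 μM).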
Sequence of c-Kit (P10721 26-976): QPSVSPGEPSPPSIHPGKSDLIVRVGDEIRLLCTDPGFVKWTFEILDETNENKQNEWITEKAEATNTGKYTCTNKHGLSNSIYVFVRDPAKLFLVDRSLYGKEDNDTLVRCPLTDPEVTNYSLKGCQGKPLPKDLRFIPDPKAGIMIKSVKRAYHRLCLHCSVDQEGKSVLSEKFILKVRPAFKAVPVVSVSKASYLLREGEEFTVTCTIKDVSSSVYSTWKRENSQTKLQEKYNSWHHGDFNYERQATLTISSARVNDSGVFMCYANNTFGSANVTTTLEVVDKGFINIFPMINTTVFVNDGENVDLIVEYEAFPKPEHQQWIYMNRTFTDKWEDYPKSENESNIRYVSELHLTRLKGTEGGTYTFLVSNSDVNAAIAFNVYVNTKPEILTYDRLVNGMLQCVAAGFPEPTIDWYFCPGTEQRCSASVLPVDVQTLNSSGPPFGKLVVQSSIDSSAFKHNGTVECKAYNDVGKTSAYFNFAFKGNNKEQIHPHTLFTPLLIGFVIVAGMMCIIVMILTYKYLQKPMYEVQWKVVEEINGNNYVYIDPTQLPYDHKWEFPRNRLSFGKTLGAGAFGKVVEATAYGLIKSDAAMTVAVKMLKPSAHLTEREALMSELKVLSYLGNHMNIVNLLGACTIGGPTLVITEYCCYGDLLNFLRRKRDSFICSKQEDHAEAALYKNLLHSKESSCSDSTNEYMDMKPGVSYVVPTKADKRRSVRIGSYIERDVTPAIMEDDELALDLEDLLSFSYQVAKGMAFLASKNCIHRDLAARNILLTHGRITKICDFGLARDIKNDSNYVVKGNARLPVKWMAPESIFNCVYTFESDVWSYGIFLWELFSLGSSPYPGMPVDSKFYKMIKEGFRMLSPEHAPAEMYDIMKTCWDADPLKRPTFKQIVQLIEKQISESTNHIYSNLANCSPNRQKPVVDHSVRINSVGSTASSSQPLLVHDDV

As for `Cn1cnc2ccc(-c3c[nH]c4ncc(C5=CCN(C(=O)C6CC6)C5)nc34)cc21` [P-082, cyclopropyl-[3-[7-(3-methylbenzimidazol-5-yl)-5H-pyrrolo[2,3-b]pyrazin-2-yl]-2,5-dihydropyrrol-1-yl]methanone], the half-maximal inhibitory concentration (IC50) against FLT3-D835Y fell in the range of 0.0001 to 1 µM; against FLT3-ITD, 0.0001 to 1 µM; on c-Kit it was 1 to 10 µM.
Regarding `Cn1cnc2ccc(-c3c[nH]c4ncc(-c5cccc(S(N)(=O)=O)c5)cc34)cc21` [P-044, 3-[3-(3-methylbenzimidazol-5-yl)-1H-pyrrolo[2,3-b]pyridin-5-yl]benzenesulfonamide], the IC50 on FLT3-D835Y lay within 0.0001 to 1 µM; on FLT3-ITD, 0.0001 to 1 µM; against c-Kit, 10 to 200 µM.
In the case of `Cc1nn(C(C)C)cc1-c1cnc2[nH]cc(-c3ccc4ncn(C(C)(C)C)c4c3)c2n1` [P-381, 7-(3-tert-butylbenzimidazol-5-yl)-2-(1-isopropyl-3-methyl-pyrazol-4-yl)-5H-pyrrolo[2,3-b]pyrazine], the 50% inhibitory concentration (IC50) against FLT3-D835Y, against FLT3-ITD and on c-Kit was 0.0001 to 1 µM in each case.
Take `COc1cnc2[nH]cc(-c3ccc4[nH]cnc4c3)c2c1` [P-002, 3-(1H-benzimidazol-5-yl)-5-methoxy-1H-pyrrolo[2,3-b]pyridine]: the figures for the half-maximal inhibitory concentration (IC50) on FLT3-D835Y, against FLT3-ITD and against c-Kit were 0.0001 to 1 µM, 0.0001 to 1 µM and 1 to 10 µM, respectively.
On to `O=C(C1CC1)N1CC=C(c2cnc3[nH]cc(-c4ccc5ncn(CC(F)(F)F)c5c4)c3n2)C1` [P-125, cyclopropyl-[3-[7-[3-(2,2,2-trifluoroethyl)benzimidazol-5-yl]-5H-pyrrolo[2,3-b]pyrazin-2-yl]-2,5-dihydropyrrol-1-yl]methanone], for which the IC50 against FLT3-D835Y lay in the range of 0.0001 to 1 µM; at FLT3-ITD, 0.0001 to 1 µM; at c-Kit, 1 to 10 µM.
In the case of `CC(C)(O)C#Cc1cnc2[nH]cc(-c3ccc4ncn(C(C)(C)C)c4c3)c2n1` [P-377, 4-[7-(3-tert-butylbenzimidazol-5-yl)-5H-pyrrolo[2,3-b]pyrazin-2-yl]-2-methyl-but-3-yn-2-ol], the results for the IC50 against FLT3-D835Y, against FLT3-ITD and at c-Kit were 0.0001 to 1 µM, 0.0001 to 1 µM and 1 to 10 µM, respectively.
In the case of `CS(=O)(=O)Nc1cccc(-c2cnc3[nH]cc(-c4ccc5ncsc5c4)c3n2)c1` [P-054, N-[3-[7-(1,3-benzothiazol-6-yl)-5H-pyrrolo[2,3-b]pyrazin-2-yl]phenyl]methanesulfonamide], the IC50 fell in the range of 0.0001 to 1 µM against FLT3-D835Y, 0.0001 to 1 µM at FLT3-ITD and 1 to 10 µM against c-Kit.
Turning to `COc1cnc2[nH]cc(-c3ccc4ncn(C5CC5)c4c3)c2c1` [P-060, 1-cyclopropyl-6-(5-methoxy-1H-pyrrolo[2,3-b]pyridin-3-yl)benzimidazole], the IC50 against FLT3-D835Y lay within 0.0001 to 1 µM; at FLT3-ITD, 0.0001 to 1 µM; on c-Kit it was 10 to 200 µM.
For the molecule `COc1ccc2c(-c3ccc4ncn(C)c4c3)c[nH]c2n1` [P-034, 6-methoxy-3-(3-methylbenzimidazol-5-yl)-1H-pyrrolo[2,3-b]pyridine], the half-inhibitory concentration (IC50) against FLT3-D835Y lay in the range of 1 to 10 µM; against FLT3-ITD, 1 to 10 µM; on c-Kit it was 10 to 200 µM.
For the molecule `CC(=O)Nc1cccc(-c2cnc3[nH]cc(-c4ccc5ncn(C)c5c4)c3c2)c1` [P-116, N-[3-[3-(3-methylbenzimidazol-5-yl)-1H-pyrrolo[2,3-b]pyridin-5-yl]phenyl]acetamide], the IC50 on FLT3-D835Y was 0.0001 to 1 µM; at FLT3-ITD, 0.0001 to 1 µM; against c-Kit, 1 to 10 µM.
Consider `CN1CCOc2ccc(-c3c[nH]c4ncc(-c5cccc(NS(C)(=O)=O)c5)nc34)cc21` [P-065, N-[3-[7-(4-methyl-2,3-dihydro-1,4-benzoxazin-6-yl)-5H-pyrrolo[2,3-b]pyrazin-2-yl]phenyl]methanesulfonamide], for which the IC50 at FLT3-D835Y was 0.0001 to 1 µM; on FLT3-ITD it was 0.0001 to 1 µM; on c-Kit, 10 to 200 µM.
As to `c1cnc2[nH]cc(-c3ccc4ncsc4c3)c2c1` [P-030, 6-(1H-pyrrolo[2,3-b]pyridin-3-yl)-1,3-benzothiazole], the results for the IC50 against FLT3-D835Y, against FLT3-ITD and on c-Kit were 0.0001 to 1 µM, 0.0001 to 1 µM and 1 to 10 µM, respectively.
On to `c1nc2cc(-c3c[nH]c4ncc(OCC5CC5)cc34)ccc2[nH]1` [P-007, 3-(1H-benzimidazol-5-yl)-5-(cyclopropylmethoxy)-1H-pyrrolo[2,3-b]pyridine], for which the figures for the IC50 at FLT3-D835Y, on FLT3-ITD and against c-Kit were 1 to 10 µM, 0.0001 to 1 µM and 1 to 10 µM, respectively.
In the case of `COc1cnc2[nH]cc(-c3ccc4ncsc4c3)c2c1` [P-029, 6-(5-methoxy-1H-pyrrolo[2,3-b]pyridin-3-yl)-1,3-benzothiazole], the IC50 is 0.0001 to 1 µM against FLT3-D835Y, 0.0001 to 1 µM on FLT3-ITD and 1 to 10 µM against c-Kit.
As for `c1cnc2[nH]cc(-c3ccc4[nH]ncc4c3)c2c1` [P-001, 3-(1H-indazol-5-yl)-1H-pyrrolo[2,3-b]pyridine], the IC50 on FLT3-D835Y lay in the range of 1 to 10 µM; at FLT3-ITD it was 1 to 10 µM; on c-Kit it was 0.0001 to 1 µM.
With `Cn1cnc2ccc(-c3c[nH]c4ncc(-c5ccc(NS(C)(=O)=O)cc5)nc34)cc21` [P-063, N-[4-[7-(3-methylbenzimidazol-5-yl)-5H-pyrrolo[2,3-b]pyrazin-2-yl]phenyl]methanesulfonamide], the IC50 against FLT3-D835Y fell in the range of 0.0001 to 1 µM; on FLT3-ITD, 0.0001 to 1 µM; against c-Kit, 1 to 10 µM.
With `CC(C)n1cc(-c2cnc3[nH]cc(-c4ccc5ncn(C(C)(C)C)c5c4)c3n2)cn1` [P-382, 7-(3-tert-butylbenzimidazol-5-yl)-2-(1-isopropylpyrazol-4-yl)-5H-pyrrolo[2,3-b]pyrazine], the IC50 on FLT3-D835Y, at FLT3-ITD and at c-Kit was 0.0001 to 1 µM in each case.
In the case of `CN(C)c1ccc(-c2cnc3[nH]cc(-c4ccc5ncn(C(C)(C)C)c5c4)c3n2)cn1` [P-379, 5-[7-(3-tert-butylbenzimidazol-5-yl)-5H-pyrrolo[2,3-b]pyrazin-2-yl]-N,N-dimethyl-pyridin-2-amine], the half-inhibitory concentration (IC50) against FLT3-D835Y, against FLT3-ITD and at c-Kit was 0.0001 to 1 µM throughout.
As to `COc1cnc2[nH]cc(-c3ccc4[nH]nnc4c3)c2c1` [P-014, 5-(5-methoxy-1H-pyrrolo[2,3-b]pyridin-3-yl)-1H-benzotriazole], the half-inhibitory concentration (IC50) against FLT3-D835Y fell in the range of 0.0001 to 1 µM; against FLT3-ITD, 0.0001 to 1 µM; at c-Kit, 10 to 200 µM.
Turning to `CCCn1cnc2cc(-c3c[nH]c4ncc(OC)cc34)ccc21` [P-056, 5-methoxy-3-(1-propylbenzimidazol-5-yl)-1H-pyrrolo[2,3-b]pyridine], the 50% inhibitory concentration (IC50) was 0.0001 to 1 µM against FLT3-D835Y, 0.0001 to 1 µM against FLT3-ITD and 10 to 200 µM at c-Kit.
For `Cn1cnc2ccc(-c3c[nH]c4ncc(-c5cccc(S(=O)(=O)N6CCCC6)c5)cc34)cc21` [P-122, 1-methyl-6-[5-(3-pyrrolidin-1-ylsulfonylphenyl)-1H-pyrrolo[2,3-b]pyridin-3-yl]benzimidazole], the half-maximal inhibitory concentration (IC50) against FLT3-D835Y fell in the range of 0.0001 to 1 µM; against FLT3-ITD it was 0.0001 to 1 µM; against c-Kit it was 1 to 10 µM.
